Laboratory results as given in patent US10167313B2, “Selective caspase inhibitors and uses thereof” (Genesis Technologies Limited, priority 2008, dated 2019).
Read-outs that look alike come from different tables or passages of the source.

Columns and labels:
[1] = target: caspase-1 (Homo sapiens (Human), UniProt P29466); assay: Caspase-1 Inhibitor Drug Screening Kit, fluorometric enzymatic assay
Description: (§1) The level of inhibition of caspase-1, -3, -5, -7, -9 activity was determined by comparison of the relative fluorescence intensity in samples with or without the compound.

[2] = system: Hela cells; assay: Inhibition of proteolytic cleavage of PARP in staurosporine-treated live Hela cells; assay type: cell-based; settings: for inhibition at 50 µM: Homo sapiens
Description: To test the efficacy of caspase-3 inhibitors at the cellular level, the ability of selected compounds to inhibit the proteolytic cleavage of PARP (poly ADP-ribose polymerase) was evaluated in live Hela cells.
Briefly, in this assay Hela cells are seeded in 96 well plates and incubated for 4 hours with staurosporine, a well characterized inducer of apoptosis, alone or together with different concentrations of compound (50, 25, 10 and 3 uM). After formaldehyde-based fixation, the cells are stained with a fluorescein-labeled anti-cleaved PARP antibody (Cell signaling, Cat#: 9547) and counterstained with Hoechst33342 (Invitrogen, Cat#: H3570) to mark all nuclei. Fluorescence images are taken on a Cellomics™ microscope system (Thermo Scientific, Pittsburgh, USA) with the Hoechst stain in the blue channel and the cleaved PARP antibody stain in the green channel. The percentage of cleaved PARP positive cells is determined by calculating the ratio between nuclei with a cleaved PARP antibody staining above a certain threshold and all (Hoechst positive) nuclei. The efficacy of caspase-3 inhibition is determined by calculating the ratio between cleaved PARP positive cells after staurosporine incubation together with compounds and staurosporine incubation without compounds.

[3] = target: Caspase 3/7 (Glo3/7); assay: Glo3/7 assay
[4] = target: caspase-9 (Homo sapiens (Human), UniProt P55211); assay: Caspase-9 Inhibitor Drug Screening Kit, fluorometric enzymatic assay; settings: for IC50: read-out: Caspase enzymatic activity, IC50 (uM) Caspase 9, 30-minute incubation at 37° C., AFC liberation
Description: as §1

[5] = target: caspase-7 (Homo sapiens (Human), UniProt P55210); assay: Caspase-7 Inhibitor Drug Screening Kit, fluorometric enzymatic assay; settings: based on the IC50 values
Description: as §1

[6] = target: caspase-5 (Homo sapiens (Human), UniProt P51878); assay: Caspase-5 Inhibitor Drug Screening Kit, fluorometric enzymatic assay; settings: for IC50: read-out: Caspase enzymatic activity, IC50 (uM) Caspase 5, 30-minute incubation at 37° C., AFC liberation
Description: as §1

[7] = 50 uM, relative to DEVDFMK, read-out: % of inhibition with compound relative to DEVDFMK
[8] = read-out: % inhibition of PARP cleavage at 50 uM compound, staurosporine 4 hours, 50 uM compound

caspase-1, sequence (P29466 120-297): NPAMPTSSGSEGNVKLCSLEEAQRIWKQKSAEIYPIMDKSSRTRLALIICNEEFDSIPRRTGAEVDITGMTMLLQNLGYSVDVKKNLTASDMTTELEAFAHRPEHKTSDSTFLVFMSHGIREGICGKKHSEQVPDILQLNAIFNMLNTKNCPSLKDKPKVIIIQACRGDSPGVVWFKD
caspase-1, sequence (P29466 317-404): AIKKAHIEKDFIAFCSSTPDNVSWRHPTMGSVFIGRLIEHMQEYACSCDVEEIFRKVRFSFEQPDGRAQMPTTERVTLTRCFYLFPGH
caspase-5, sequence (P51878 137-327): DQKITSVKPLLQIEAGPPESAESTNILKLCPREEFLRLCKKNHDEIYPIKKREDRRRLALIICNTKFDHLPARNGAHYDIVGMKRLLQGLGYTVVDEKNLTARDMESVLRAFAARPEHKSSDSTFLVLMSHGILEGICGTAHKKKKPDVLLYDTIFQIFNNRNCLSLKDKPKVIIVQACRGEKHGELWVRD
caspase-5, sequence (P51878 347-434): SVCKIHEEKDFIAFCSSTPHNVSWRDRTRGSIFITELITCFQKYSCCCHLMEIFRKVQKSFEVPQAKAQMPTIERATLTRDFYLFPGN
caspase-9, sequence (P55211 1-315): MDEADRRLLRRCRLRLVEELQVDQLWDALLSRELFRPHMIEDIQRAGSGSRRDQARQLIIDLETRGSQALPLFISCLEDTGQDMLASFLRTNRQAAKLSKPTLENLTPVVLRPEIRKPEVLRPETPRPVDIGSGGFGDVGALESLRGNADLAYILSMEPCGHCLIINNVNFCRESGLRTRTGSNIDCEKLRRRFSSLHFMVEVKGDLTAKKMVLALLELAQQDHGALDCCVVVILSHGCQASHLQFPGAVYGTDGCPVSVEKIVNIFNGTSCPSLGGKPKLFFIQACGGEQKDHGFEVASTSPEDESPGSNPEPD
caspase-9, sequence (P55211 331-416): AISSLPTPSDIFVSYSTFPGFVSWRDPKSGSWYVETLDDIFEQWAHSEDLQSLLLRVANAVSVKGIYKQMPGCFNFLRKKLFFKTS
caspase-7, sequence (P55210 24-198): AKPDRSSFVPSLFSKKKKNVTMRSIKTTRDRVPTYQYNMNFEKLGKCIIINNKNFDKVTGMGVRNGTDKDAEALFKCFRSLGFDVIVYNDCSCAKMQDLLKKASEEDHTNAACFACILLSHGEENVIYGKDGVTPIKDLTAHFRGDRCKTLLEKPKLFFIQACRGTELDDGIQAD
caspase-7, sequence (P55210 207-303): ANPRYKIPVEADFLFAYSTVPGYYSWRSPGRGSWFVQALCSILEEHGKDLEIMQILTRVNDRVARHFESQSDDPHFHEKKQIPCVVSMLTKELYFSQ

CC(C)[C@H](NC(=O)[C@H](Cc1ccc2ccccc2n1)NC(=O)[C@H](CC(=O)O)NC(=O)OCc1ccccc1)C(=O)N[C@H](/C=C/S(=O)(=O)c1ccccc1)CC(=O)O [Compound 63, Z-Asp-Ala(2′-quinolyl)-Val-Aspphenyl vinyl sulfone]
IC50 ([1]; read-out: Caspase enzymatic activity, IC50 (uM) Caspase 1, 30-minute incubation at 37° C., AFC liberation): > 3.33 µM | inhibitory activity for caspase-1 (in words) ([1]; tested dose-range 1-3333 nM): No significant inhibitory activity | inhibition at 50 µM [2, 7]: 15% | inhibition at 50 µM [2, 8]: 10% | IC50 [3]: 0.9 µM | IC50 [4]: > 3.33 µM | inhibitory activity for caspase-9 (in words) ([4]; tested dose-range 1-3333 nM): No significant inhibitory activity | selectivity of caspase-3 over caspase-7 (IC50 fold difference) [5]: ~50 fold | IC50 [6]: > 3.33 µM | inhibitory activity for caspase-5 (in words) ([6]; tested dose-range 1-3333 nM): No significant inhibitory activity

CC(C)[C@H](NC(=O)[C@@H](NC(=O)[C@H](CC(=O)O)NC(=O)OCc1ccccc1)C1Cc2ccccc2C1)C(=O)N[C@H](/C=C/S(C)(=O)=O)CC(=O)O [Compound 57, Z-Asp-Indanylglycine-Val-Aspmethyl vinyl sulfone]
fold less efficiency against caspase-1 than against group III caspases [1]: about 29 fold | inhibition at 50 µM [2, 7]: 70% | inhibition at 50 µM [2, 8]: 65% | IC50 [3]: 0.1 µM | IC50 [4]: > 3.33 µM | IC50 [6]: > 3.33 µM

CC(C)[C@H](NC(=O)[C@@H](NC(=O)[C@H](CC(=O)O)NC(=O)OCc1ccccc1)c1ccccc1)C(=O)N[C@H](/C=C/S(C)(=O)=O)CC(=O)O [Compound 53, Z-Asp-Phg-Val-Aspmethyl vinyl sulfone]
reduction of the percentage of PARP positive cells after staurosporine treatment [2]: more than 50% | inhibition at 50 µM [2, 7]: 80% | inhibition at 50 µM [2, 8]: 55% | effectivity in inhibiting PARP cleavage (in words) ([2]; relative to DEVD-fmk): highly effective relative to DEVD-fmk | IC50 [3]: 0.1 µM | IC50 [4]: > 10 µM | selectivity of caspase-3 over caspase-7 (IC50 fold difference) [5]: about 12 fold | IC50 [6]: > 10 µM
